Results published in patent US20240350642A1, “SUSTAINED RELEASE DOSAGE FORMS FOR LOW SOLUBILITY COMPOUNDS AND METHODS FOR PREPARING OF THESE SUSTAINED RELEASE DOSAGE FORMS” (priority 2023, published 2024).
“Also recorded” adds a separate entry of the source.

Assays:
Type in all cases: physicochemical
[1] = Solubility of the API in aqueous media
Experimental: A different aqueous media may be selected if required for stability reasons of the API; e.g., decompensation of the at pH 6.8 or change of the polymorph of the API, e.g. salt formation of a base under low pH conditions and vis versa base formation of API with a strong acid at higher pH values. Preferably, aqueous conditions are selected to maintain an unchanged API polymorph. The amount dissolved is determined either by measuring the concentration at the defined time points and the amount dissolved is plotted versus time. The amount at each time point is determined by a suitable assay method, e.g., UV for API with sufficient extinction coefficient or HPLC with low extinction coefficient.

[2] = Solubility of Ketoconazole in USP dissolution apparatus before and after adding HP-β-Cyclodextrin (experiment 13)
Experimental: FIGS. 5A and 5B refer to a method to determine the solubility of low soluble API and determination of the solubility enhancing effect of an API: Cyclodextrin complex. Accurately weighted amounts of the low soluble API, higher than its intrinsic solubility in the volume and pH of the aqueous media, is added to a defined volume into a vessel of the standard dissolution test apparatus 1 or 2 as defined in US Pharmacopeia (chapter <711> “Dissolution”) at pH conditions suitable for the API as explained above and at standard temperature conditions at the site of absorption e.g., 37° C. and paddle rotation of 50 rpm, with either water or standard aqueous media at pH 1, pH 2, water or buffer pH 6.8. It is to be assured by visual check that the API is not or not fully dissolved to ensure that the added amount is higher than the intrinsic solubility of the API. The dissolution of the API is checked for between 30 Min. and 3 hours, and the amount dissolved is measured with a suitable assay method like UV or HPLC and plotted against time. After the initial phase at least a 100-time overage of the desired complex forming Cyclodextrin, in a suitable complex forming ratio with the API, is added to the dissolution vessel and the dissolution determination is continued for up to 24 hours until the amount of dissolved API reaches a plateau. […]

[3] = Solubility of Cannabidiol in USP dissolution apparatus before and after adding HP-β-Cyclodextrin (experiment 12)
Experimental: FIGS. 5A and 5B refer to a method to determine the solubility of low soluble API and determination of the solubility enhancing effect of an API: Cyclodextrin complex. Accurately weighted amounts of the low soluble API, higher than its intrinsic solubility in the volume and pH of the aqueous media, is added to a defined volume into a vessel of the standard dissolution test apparatus 1 or 2 as defined in US Pharmacopeia (chapter <711> “Dissolution”) at pH conditions suitable for the API as explained above and at standard temperature conditions at the site of absorption e.g., 37° C. and paddle rotation of 50 rpm, with either water or standard aqueous media at pH 1, pH 2, water or buffer pH 6.8. It is to be assured by visual check that the API is not or not fully dissolved to ensure that the added amount is higher than the intrinsic solubility of the API. The dissolution of the API is checked for between 30 Min. and 3 hours, and the amount dissolved is measured with a suitable assay method like UV or HPLC and plotted against time. […]
An accurately weighted amount of Cannabidiol was dissolved in ethanol resulting in a solution containing 5 mg/ml. […] The amount of dissolved CBD was monitored. […]

Structure (SMILES)	solubility in aqueous media (words) ([1]; pH 2)	solubility in aqueous media (words) ([1]; pH 6.8)	solubility of Ketoconazole after overage of HP-β-Cyclodextrin ([2]; 500 ml aqueous media pH 6.8)	solubility of Ketoconazole before Cyclodextrin addition ([2]; 500 ml aqueous media pH 6.8, added as powder)	solubility in aqueous media (words) ([1]; any pH or pH not given)	solubility in aqueous media (words) ([1]; any pH or pH not given, listed as Cannabidiol)	solubility of CBD after overage of HP-β-Cyclodextrin ([3]; 500 ml aqueous media pH 2)	solubility of CBD before Cyclodextrin addition ([3]; 500 ml aqueous media pH 2, added as solution in ethanol)
CC(=O)N1CCN(c2ccc(OCC3COC(Cn4ccnc4)(c4ccc(Cl)cc4Cl)O3)cc2)CC1 (centres unmarked) [Ketoconazole]	low soluble	very insoluble; also recorded: less soluble; also recorded: very low soluble	significantly increased	visibly insoluble	–	–	–	–
C=C(C)[C@@H]1CCC(C)=C[C@H]1c1c(O)cc(CCCCC)cc1O [CBD, Cannabidiol]	–	–	–	–	very insoluble	insoluble	significantly increased	almost insoluble
